Here are results for 42 compounds from ChEMBL document CHEMBL1156472, “Structural variation governs substrate specificity for organic anion transporter (OAT) homologs. Potential remote sensing by OAT family members” (J Biol Chem, 2007).

Each structure is given as a SMILES string.

In the first data set the target is T1, Solute carrier family 22 member 20 (Mus musculus, UniProt Q80UJ1).
T1 sequence (Q80UJ1 whole entry): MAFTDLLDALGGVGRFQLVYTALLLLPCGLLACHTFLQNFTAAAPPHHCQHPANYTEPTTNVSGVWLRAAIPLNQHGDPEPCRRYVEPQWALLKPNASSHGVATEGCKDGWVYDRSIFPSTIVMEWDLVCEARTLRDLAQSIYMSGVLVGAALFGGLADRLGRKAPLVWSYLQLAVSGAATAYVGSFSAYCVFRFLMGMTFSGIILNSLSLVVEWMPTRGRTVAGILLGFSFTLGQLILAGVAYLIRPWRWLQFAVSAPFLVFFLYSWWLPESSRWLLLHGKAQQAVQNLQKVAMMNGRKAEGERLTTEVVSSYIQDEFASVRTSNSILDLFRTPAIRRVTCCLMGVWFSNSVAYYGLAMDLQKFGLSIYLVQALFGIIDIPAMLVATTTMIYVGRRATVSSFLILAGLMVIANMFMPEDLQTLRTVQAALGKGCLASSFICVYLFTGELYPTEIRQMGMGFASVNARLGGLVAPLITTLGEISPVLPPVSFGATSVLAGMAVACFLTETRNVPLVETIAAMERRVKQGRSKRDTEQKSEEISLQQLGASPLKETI
Description: Inhibition of mouse Oat6-mediated [3H]ES uptake in Xenopus oocytes after 1 hr. The format is cell-based, Oocyte. As to conditions: read-out: Ki.
In the case of `CCCN(CCC)S(=O)(=O)c1ccc(C(=O)O)cc1` [PROBENECID], the Ki was found to be 8.4 µM.

On to `C[C@@H]1Cc2c(Cl)cc(C(=O)N[C@@H](Cc3ccccc3)C(=O)O)c(O)c2C(=O)O1` [3R14S-OCHRATOXIN A], for which the Ki came out at 49 µM.

With `CC(=O)C(=O)O` [PYRUVATE], the Ki came out at 271 µM.

On to `Nc1ccc(C(=O)NCC(=O)O)cc1` [AMINOHIPPURIC ACID], for which the Ki stood at 446 µM.

As to `CCCCC[C@H](O)/C=C/[C@H]1[C@H](O)CC(=O)[C@@H]1C/C=C\CCCC(=O)O` [DINOPROSTONE], the Ki is 18 µM.

In the case of `O=C(O)CNC(=O)c1ccccc1` [HIPPURIC ACID], the Ki was 312 µM.

Consider `C[C@]12CC[C@@H]3c4ccc(OS(=O)(=O)O)cc4CC[C@H]3[C@@H]1CC[C@@H]2OS(=O)(=O)O` [ESTRADIOL DISULFATE], for which the Ki was 7210 µM.

For `CN(Cc1cnc2nc(N)nc(N)c2n1)c1ccc(C(=O)NC(CCC(=O)O)C(=O)O)cc1` (single isomer, unassigned) [METHOTREXATE], the Ki was 597 µM.

Consider `CCCCCC(=O)O` [HEXANOATE], for which the Ki was determined as 9 µM.

Regarding `O=C(O)c1ccccc1O` [SALICYLIC ACID], the Ki is 44 µM.

For the compound `O=C(O)/C=C/C(=O)O` [FUMARIC ACID], the Ki was > 30000 µM.

For the compound `CC(=O)Oc1ccccc1C(=O)O` [ASPIRIN], the Ki is 101 µM.

Take `CCCCCCC(=O)O` [HEPTANOATE]: the Ki came to 8.2 µM.

`O=C(O)C(=O)Cc1ccc(O)cc1` [4-HYDROXYPHENYLPYRUVIC ACID]: the Ki stood at 66 µM.

For `CC(O)CC(=O)O` (stereo not drawn) [3-HYDROXYBUTYRIC ACID, (+/-)-], the Ki was 191 µM.

As to `O=C(O)c1ccccc1-c1c2cc(Br)c(=O)c(Br)c-2oc2c(Br)c(O)c(Br)cc12`, the Ki came to 4.4 µM.

Consider `CCC(=O)O` [PROPIONIC ACID], for which the Ki is 279 µM.

Consider `CC1(C)S[C@@H]2[C@H](NC(=O)Cc3ccccc3)C(=O)N2[C@H]1C(=O)O` (single isomer, unassigned) [PENICILLIN G SODIUM], for which the Ki is 452 µM.

On to `O=C(O)CCCC(=O)O` [GLUTARATE], for which the Ki is 5410 µM.

For the compound `CC(C)C(O)C(=O)O` (stereo not drawn), the Ki came to 315 µM.

In the case of `O=C(O)C(O)Cc1ccc(O)cc1` (stereo not drawn), the Ki came out at 182 µM.

With `O=C1OC2(c3ccc(O)cc3Oc3cc(O)ccc32)c2ccccc21` [FLUORESCEIN], the Ki came to 99 µM.

As for `CC1(C)S[C@@H]2[C@H](NC(=O)[C@H](C(=O)O)c3ccsc3)C(=O)N2[C@H]1C(=O)O` [TICARCILLIN], the Ki amounted to 533 µM.

`O=C(O)CCCCCCC(=O)O` [OCTANEDIOATE]: the Ki was found to be 1130 µM.

Regarding `C[C@]12CC[C@@H]3c4ccc(OS(=O)(=O)O)cc4CC[C@H]3[C@@H]1CCC2=O` [ESTRONE SULFURIC ACID], the Ki was 58 µM.

On to `CCCCC(CC)C(=O)O` (stereo not drawn) [2-ETHYLHEXANOIC ACID], for which the Ki stood at 6.6 µM.

As to `CC(C)Cc1ccc(C(C)C(=O)O)cc1` (stereo not drawn) [IBUPROFEN], the Ki stood at 1.1 µM.

On to `CCCC(=O)O` [BUTYRIC ACID], for which the Ki worked out at 82 µM.

Regarding `CC(=O)NC(CC(=O)O)C(=O)O` (stereo not drawn), the Ki was 27800 µM.

As for `O=C(O)CCCCC(=O)O` [ADIPIC ACID], the Ki came to 1580 µM.

Turning to `CC1(C)S[C@@H]2[C@H](NC(=O)C(C(=O)O)c3ccccc3)C(=O)N2[C@H]1C(=O)O` (stereo partly drawn) [CARBENICILLIN DISODIUM], the Ki is 1330 µM.

For `O=C(O)c1ccccc1` [BENZOIC ACID], the Ki amounted to 13.8 µM.

Take `O=C(O)C(=O)Cc1ccccc1` [PHENYLPYRUVATE]: the Ki worked out at 29 µM.

Regarding `CC(C)CC(=O)O` [3-METHYLBUTANOIC ACID], the Ki came out at 32.3 µM.

Staying with this data set, now noted: read-out: pKi (converted).
For the compound `CC(C)[C@H](O)C(=O)O`, the Ki is 316 µM.

Consider `CC(C)[C@@H](O)C(=O)O` [DEAMINOHYDROXYVALINE], for which the Ki is 316 µM.

Take `C[C@@H](O)CC(=O)O` [(R)-3-HYDROXYBUTANOATE]: the Ki was 191 µM.

Regarding `O=C(O)/C=C/C(=O)O` [FUMARIC ACID], the Ki is > 31600 µM.

Regarding `CCCC[C@H](CC)C(=O)O`, the Ki was 6.61 µM.

On to `O=C(O)[C@@H](O)Cc1ccc(O)cc1`, for which the Ki was 182 µM.

As to `C[C@H](O)CC(=O)O`, the Ki is 191 µM.

On to `CCCC[C@@H](CC)C(=O)O`, for which the Ki is 6.61 µM.

Take `CC(=O)N[C@@H](CC(=O)O)C(=O)O`: the Ki is 27500 µM.

The target of the next data set is T1, Solute carrier family 22 member 20. Kind of data set: Activity of mouse Oat6 expressed in Xenopus oocytes assessed as drug uptake. As to conditions: oocyte. Type of data set: cell-based.
For `C[C@@H]1Cc2c(Cl)cc(C(=O)N[C@@H](Cc3ccccc3)C(=O)O)c(O)c2C(=O)O1` [3R14S-OCHRATOXIN A], the Vmax (commonly the top rate of the reaction or transport when substrate is in excess) came out at 4.8 pmol/h.

As for `Nc1ccc(C(=O)NCC(=O)O)cc1` [AMINOHIPPURIC ACID], the Vmax turned out to be 4.6 pmol/h.

On to `CCCCC[C@H](O)/C=C/[C@H]1[C@H](O)CC(=O)[C@@H]1C/C=C\CCCC(=O)O` [DINOPROSTONE], for which the Vmax stood at 0.9 pmol/h.

As for `C[C@]12CC[C@@H]3c4ccc(OS(=O)(=O)O)cc4CC[C@H]3[C@@H]1CCC2=O` [ESTRONE SULFURIC ACID], the Vmax was 40 pmol/h.

Take `CC(C)Cc1ccc(C(C)C(=O)O)cc1` (stereo not drawn) [IBUPROFEN]: the Vmax was 0.28 pmol/h.
